Values of other authors in article PMC9851200, “Multiparameter phenotypic screening for endogenous TFEB and TFE3 translocation identifies novel chemical series modulating lysosome function” (Autophagy, 2022).

What was measured:
Set-up in all cases: method as in original PKIS2 published data
[1] = biological target: T1, kinases (KINOMEscan panel) (Homo sapiens, UniProt O00444); settings: kinase PLK4; Published KINOMEscan; ref original PKIS2 published data; cited from earlier work
T1 sequence (O00444 1-970): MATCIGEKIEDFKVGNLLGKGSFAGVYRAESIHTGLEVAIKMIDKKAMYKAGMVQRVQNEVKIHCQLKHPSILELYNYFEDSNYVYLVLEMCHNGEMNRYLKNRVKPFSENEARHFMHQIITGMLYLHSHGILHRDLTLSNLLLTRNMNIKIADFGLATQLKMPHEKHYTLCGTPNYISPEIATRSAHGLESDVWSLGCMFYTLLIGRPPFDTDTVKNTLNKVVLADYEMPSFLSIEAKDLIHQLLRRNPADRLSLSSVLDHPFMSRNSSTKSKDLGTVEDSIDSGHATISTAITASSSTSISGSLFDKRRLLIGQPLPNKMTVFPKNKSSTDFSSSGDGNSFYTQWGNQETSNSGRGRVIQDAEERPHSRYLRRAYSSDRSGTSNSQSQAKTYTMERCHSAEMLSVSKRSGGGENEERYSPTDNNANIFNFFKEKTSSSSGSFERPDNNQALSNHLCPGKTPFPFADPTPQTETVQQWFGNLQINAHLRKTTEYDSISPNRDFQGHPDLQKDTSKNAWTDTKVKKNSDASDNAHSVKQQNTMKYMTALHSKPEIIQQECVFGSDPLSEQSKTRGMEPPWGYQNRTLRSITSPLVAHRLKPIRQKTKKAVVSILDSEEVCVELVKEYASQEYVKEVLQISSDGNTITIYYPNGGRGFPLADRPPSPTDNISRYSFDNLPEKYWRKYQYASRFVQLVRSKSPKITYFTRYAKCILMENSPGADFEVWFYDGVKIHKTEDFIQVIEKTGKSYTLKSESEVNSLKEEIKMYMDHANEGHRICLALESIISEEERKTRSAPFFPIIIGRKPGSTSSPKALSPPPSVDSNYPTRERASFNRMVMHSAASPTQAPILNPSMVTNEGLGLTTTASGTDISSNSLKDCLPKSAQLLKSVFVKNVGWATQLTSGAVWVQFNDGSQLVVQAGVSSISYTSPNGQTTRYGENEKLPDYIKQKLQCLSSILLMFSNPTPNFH

[2] = biological target: T2, kinases (KINOMEscan panel) (Homo sapiens, UniProt Q09013); settings: kinase DMPK; Published KINOMEscan; ref original PKIS2 published data; cited from earlier work
T2 sequence (Q09013 1-629): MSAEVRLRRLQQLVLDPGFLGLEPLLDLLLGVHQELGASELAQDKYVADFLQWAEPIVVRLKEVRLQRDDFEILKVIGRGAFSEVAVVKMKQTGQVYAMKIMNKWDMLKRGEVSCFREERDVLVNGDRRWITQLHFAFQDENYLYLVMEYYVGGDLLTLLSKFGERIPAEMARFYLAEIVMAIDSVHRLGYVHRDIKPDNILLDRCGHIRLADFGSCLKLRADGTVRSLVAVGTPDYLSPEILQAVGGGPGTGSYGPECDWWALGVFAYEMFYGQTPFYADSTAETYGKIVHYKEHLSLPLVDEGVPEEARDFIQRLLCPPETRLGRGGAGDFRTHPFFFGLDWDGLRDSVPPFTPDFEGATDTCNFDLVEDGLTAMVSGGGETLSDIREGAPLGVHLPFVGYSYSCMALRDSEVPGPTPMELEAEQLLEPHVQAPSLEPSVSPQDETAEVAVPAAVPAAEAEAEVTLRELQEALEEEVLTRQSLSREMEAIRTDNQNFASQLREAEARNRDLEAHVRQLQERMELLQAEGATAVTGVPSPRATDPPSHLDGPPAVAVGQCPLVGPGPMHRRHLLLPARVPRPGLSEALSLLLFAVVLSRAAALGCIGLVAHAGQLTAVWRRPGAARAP

[3] = biological target: T3, kinases (KINOMEscan panel) (Homo sapiens, UniProt Q14164); settings: cited from earlier work
T3 sequence (Q14164 1-716): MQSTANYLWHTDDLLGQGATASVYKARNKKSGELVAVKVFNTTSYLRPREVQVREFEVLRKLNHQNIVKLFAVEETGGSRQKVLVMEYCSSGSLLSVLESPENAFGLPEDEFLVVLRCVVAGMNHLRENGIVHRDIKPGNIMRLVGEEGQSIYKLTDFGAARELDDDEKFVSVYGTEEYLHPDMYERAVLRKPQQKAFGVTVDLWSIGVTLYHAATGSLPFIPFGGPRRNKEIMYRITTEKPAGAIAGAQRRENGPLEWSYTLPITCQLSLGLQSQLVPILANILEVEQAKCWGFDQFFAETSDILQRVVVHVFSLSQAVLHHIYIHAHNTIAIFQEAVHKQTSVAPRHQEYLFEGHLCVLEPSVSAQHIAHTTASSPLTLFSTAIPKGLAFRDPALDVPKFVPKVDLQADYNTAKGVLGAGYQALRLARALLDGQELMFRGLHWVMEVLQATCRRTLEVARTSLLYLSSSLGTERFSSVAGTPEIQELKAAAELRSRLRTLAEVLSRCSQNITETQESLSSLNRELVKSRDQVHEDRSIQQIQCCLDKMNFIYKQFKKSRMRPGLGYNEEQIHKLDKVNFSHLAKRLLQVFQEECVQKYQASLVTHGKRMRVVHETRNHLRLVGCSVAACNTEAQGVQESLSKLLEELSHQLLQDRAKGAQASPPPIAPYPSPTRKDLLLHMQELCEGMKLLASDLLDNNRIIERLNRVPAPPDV

[4] = biological target: kinases (KINOMEscan panel) (Homo sapiens, UniProt Q7KZI7); settings: MARK2; Published KINOMEscan; ref original PKIS2 published data; cited from earlier work
Chain of kinases (KINOMEscan panel) (Homo sapiens, UniProt Q7KZI7) (Q7KZI7 whole entry): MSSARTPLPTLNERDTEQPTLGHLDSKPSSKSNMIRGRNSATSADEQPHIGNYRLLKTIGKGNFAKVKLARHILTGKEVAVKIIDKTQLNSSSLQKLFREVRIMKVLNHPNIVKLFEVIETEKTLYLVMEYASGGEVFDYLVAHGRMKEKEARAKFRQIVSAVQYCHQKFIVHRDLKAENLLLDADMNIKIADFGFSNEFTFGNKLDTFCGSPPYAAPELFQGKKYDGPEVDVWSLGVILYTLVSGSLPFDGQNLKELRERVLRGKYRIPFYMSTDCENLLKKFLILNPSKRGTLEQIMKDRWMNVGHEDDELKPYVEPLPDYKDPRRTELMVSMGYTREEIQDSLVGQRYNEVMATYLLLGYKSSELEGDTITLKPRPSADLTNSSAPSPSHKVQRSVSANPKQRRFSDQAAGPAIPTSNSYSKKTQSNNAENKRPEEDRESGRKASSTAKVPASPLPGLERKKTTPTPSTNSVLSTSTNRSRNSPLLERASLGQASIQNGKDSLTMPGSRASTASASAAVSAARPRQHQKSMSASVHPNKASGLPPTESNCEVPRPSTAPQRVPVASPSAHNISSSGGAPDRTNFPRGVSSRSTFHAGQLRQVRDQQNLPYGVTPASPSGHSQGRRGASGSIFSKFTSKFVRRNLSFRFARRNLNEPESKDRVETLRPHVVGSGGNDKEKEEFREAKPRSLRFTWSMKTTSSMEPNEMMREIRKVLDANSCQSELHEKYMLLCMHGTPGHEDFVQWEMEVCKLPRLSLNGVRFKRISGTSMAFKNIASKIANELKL

Cc1cccc(-c2nc(Nc3ccncc3)c3ccccc3n2)n1 [NK215]
KINOMEscan PLK4 [1]: 0
KINOMEscan DMPK [2]: 2
KINOMEscan IKBKE/IKK-epsilon [3]: 0
KINOMEscan MARK2 [4]: 0
